Four compounds from PubChem BioAssay (NCI) can be followed below.

Several values for one entry are separate records, joined by “and”; a condition that tells them apart may be missing. Equal values may be shown once.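 1) Cells in 96-well plates. 2) Compound, 48 h, 5 concentrations. 3) Linear interpolation between surrounding doses. 4) Unreached endpoint = highest concentration. Abbreviation: GI50, concentration required for 50% inhibition of growth. Definition used: TGI = concentration required for complete inhibition of growth.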 Bounds are passed on as bounds.

Among the test systems are 786-0 renal; A498 renal; CCRF-CEM leukemia; HS 578T breast; K-562 leukemia; NCI-H23 lung; SK-MEL-2 melanoma; SK-OV-3 ovarian; SN12C renal; T-47D breast; TK-10 renal; UACC-257 melanoma.
Holding throughout (test): NCI tumour cell line growth inhibition, 48 h

For `c1ccc(CSC(SCc2ccccc2)c2ccc3c(c2)OCO3)cc1`, the TGI in the test with 786-0 renal, in the test on A498 renal, in the test with CCRF-CEM leukemia, with HS 578T breast, with K-562 leukemia and in the test with NCI-H23 lung was above 10000 nM each time. Besides, the TGI in the test with SK-MEL-2 melanoma, in the test on SK-OV-3 ovarian, with SN12C renal, in the test with T-47D breast, in the test on TK-10 renal and in the test on UACC-257 melanoma was above 10000 nM in each case.

With `Cc1ccc([N+](=O)[O-])c2c(NCCC[N+](C)(C)[O-])ccnc12`, the TGI with 786-0 renal was above 100000 nM; with A498 renal, 90500 nM; in the test with CCRF-CEM leukemia, above 100000 nM; with HS 578T breast, above 100000 nM; with K-562 leukemia, above 100000 nM; in the test with NCI-H23 lung, above 100000 nM. The TGI in the test with SK-MEL-2 melanoma is above 100000 nM; in the test with SK-OV-3 ovarian, above 100000 nM; in the test on SN12C renal it was above 100000 nM; in the test with T-47D breast it was above 100000 nM; with TK-10 renal, above 100000 nM; in the test with UACC-257 melanoma, 69800 nM.

In the case of `C(=N/NC1=NCCN1)/c1c2ccccc2c(/C=N\NC2=NCCN2)c2ccccc12`, the TGI in the test on 786-0 renal was 1860 nM and 1870 nM; in the test on A498 renal it was 273 nM and 1800 nM and 2300 nM; in the test on CCRF-CEM leukemia, 1920 nM and 1130 nM and 1330 nM; in the test with HS 578T breast, 262 nM and 591 nM; with K-562 leukemia it was 3630 nM and 4430 nM and 1700 nM; with NCI-H23 lung it was 647 nM and 1400 nM and 1030 nM. The TGI in the test with SK-MEL-2 melanoma is 271 nM and 747 nM and 422 nM; with SK-OV-3 ovarian it was 526 nM and 1820 nM and 3480 nM; with SN12C renal, 545 nM and 1720 nM and 1940 nM; in the test on T-47D breast, 939 nM and 4130 nM; in the test on TK-10 renal, 4730 nM and 12900 nM; in the test with UACC-257 melanoma, 393 nM and 902 nM and 801 nM. Besides, the GI50 is 84.4 nM in the test on HS 578T breast and 174 nM with T-47D breast.

With `CC1=C(C(=O)NC(C)(C)C)CC(C(=O)NC(C)(C)C)C(C)N1` (stereo not given), the TGI with 786-0 renal, in the test with A498 renal, with CCRF-CEM leukemia, in the test with HS 578T breast, in the test on K-562 leukemia and in the test on NCI-H23 lung was above 100000 nM each time. Also, the TGI in the test with SK-MEL-2 melanoma, in the test with SK-OV-3 ovarian, in the test with SN12C renal, in the test with T-47D breast, in the test with TK-10 renal and in the test on UACC-257 melanoma was above 100000 nM each time.
